Tests used:
in vitro [1] = conditions: rat, liver microsomes
in vitro [2] = conditions: mouse, liver microsomes
in vitro [3] = conditions: human, liver microsomes

SMILES	remaining at 10 min, 0.5 µM (in vitro [1]) [%]	remaining at 10 min, 0.5 µM (in vitro [2]) [%]	remaining at 10 min, 0.5 µM (in vitro [3]) [%]
O=C(NCc1cc2cc(Cl)cc(-c3nn[nH]n3)c2o1)c1cnn2cccnc12	89	80	96
O=C(O)c1cccc2cc(Cn3ccc4ccncc4c3=O)oc12	100	96	98
CCn1nc(C)cc1C(=O)Nc1nc2cc(C(N)=O)cc(OC)c2n1C/C=C/Cn1c(NC(=O)c2cc(C)nn2CC)nc2cc(C(N)=O)cc(OCCCN3CCOCC3)c21	81	> 100	22
COC(=O)c1cccc2cc(CN3Cc4ccncc4C3=O)oc12	7	11	0
Cc1ccc2c(=O)c3cccc(CC(=O)O)c3oc2c1C [VADIMEZAN]	100	89	100
O=C(NCc1cc2cc(Cl)cc(C(=O)O)c2o1)c1cncc2cccnc12	64	65	92
O=C(NCc1cc2cc(Cl)c3oc(=O)[nH]c(=O)c3c2o1)c1cnn2cccnc12	69	57	54

Second part, the molecule after the results:

remaining at 10 min, 0.5 µM (in vitro [1]) [%]	remaining at 10 min, 0.5 µM (in vitro [2]) [%]	remaining at 10 min, 0.5 µM (in vitro [3]) [%]	SMILES
91	85	99	O=C(O)c1cccc2c(Cl)c(CNC(=O)c3cnn4cccnc34)oc12
89	85	95	Cn1c(CNC(=O)c2cnn3cccnc23)nc2c(C(=O)O)cccc21
100	100	100	O=C(O)c1ccc2cc(CNC(=O)c3cnn4cccnc34)oc2c1
96	97	94	O=C(O)c1cccc2cc(CNC(=O)c3cnn4cccnc34)oc12
100	100	100	O=C(O)c1cc(Cl)cc2cc(CNC(=O)c3cnn4cccnc34)oc12
88	93	98	O=C(O)c1c(O)c(Cl)cc2cc(CNC(=O)c3cnn4cccnc34)oc12
94	100	100	C[C@H](NC(=O)c1cnn2cccnc12)c1cc2cc(Cl)cc(C(=O)O)c2o1
91	92	98	O=C(O)c1c(F)ccc2cc(CNC(=O)c3cnn4cccnc34)oc12
100	88	100	O=C(O)c1ccc2oc(CNC(=O)c3cnn4cccnc34)cc2c1

From ChEMBL document CHEMBL5042542, “Discovery of Non-Nucleotide Small-Molecule STING Agonists via Chemotype Hybridization” (J Med Chem, 2022)
